Data reported in patent US20230212571A1, “COMPOSITIONS AND METHODS FOR DELIVERING POLYNUCLEOTIDES” (NeOnc Technologies, Inc., priority 2020, published 2023).

Key:
[1] = tested on: BEC; test: Western blot of control BEC lysates; format: cell-based, human; conditions: untreated vs scramble vs miR-18a
Source text: Human surgical specimens were obtained following written informed consent from patients in accordance with Declaration of Helsinki guidelines and the Institutional Review Board (HS-04B053), at Keck School of Medicine, USC. AVM-BECs were isolated from brain tissues of patients who underwent microsurgical AVM resection. Control BECs were isolated from the structurally normal […] of patients who underwent temporal lobectomy for intractable epilepsy. Endothelial cell (EC) isolation and culture were described^5,9. (Stapleton C J, Armstrong D L, Zidovetzki R, Liu C Y, Giannotta S L, Hofman F M. Thrombospondin-1 modulates the angiogenic phenotype of human cerebral arteriovenous malformation endothelial cells. Neurosurgery. 2011; 68(5):1342-1353) (Ferreira R, Santos T, Amar A, et al. Argonaute-2 promotes miR-18a entry in human brain endothelial cells. J Am Heart Assoc. 2014; 3(3):e000968) ECs were only used between passages 3-5. Experiments were performed under shear flow conditions (12 dyn/cm^2) to reproduce arterial flow^6. […]
The levels of angiogenesis-related proteins were analyzed using the Proteome Profiler™ Human Angiogenesis Array kit (R&D Systems) following the manufacturer's instructions. […] Membranes were visualized and quantified using a C-Digit Blot scanner (Li-Cor) or a iBright CL1000 (Thermo Fisher Scientific).

[2] = tested on: AVM-BEC; test: Human Notch Signaling Pathway PCR array in AVM-BEC; format: cell-based
Experimental: MiR-18a (hsa-miR-18a-5p, 40 nM, Dharmacon) or a scramble microRNA (40 nM, Dharmacon) in nuclease-free water was added with argonaute 2 (Ago-2, 0.4 nM, Abcam) as the microRNA carrier and stabilizer^9. (Ferreira R, Santos T, Amar A, et al. Argonaute-2 promotes miR-18a entry in human brain endothelial cells. J Am Heart Assoc. 2014; 3(3):e000968). No transfection reagent was used with miR-18a or scramble microRNA treatments. Recombinant human TSP-1 (R&D Systems) stock solution was prepared in PBS and further diluted in culture medium to be used at a final concentration of 1000 ng/mL. Cells were treated during 24 h for mRNA and 48 h for protein expression studies. NEO100 (NeOnc Technologies) stock was prepared in DMSO and used immediately or stored at −20° C.
The extraction and analysis of total mRNA and microRNAs were described^9,13. (Ferreira R, Santos T, Amar A, et al. Argonaute-2 promotes miR-18a entry in human brain endothelial cells. J Am Heart Assoc. 2014; 3(3):e000968) (Marín-Ramos N I, Jhaveri N, Thein T Z, Fayngor R A, Chen T C, Hofman F M. NEO212, a conjugate of temozolomide and perillyl alcohol, blocks the endothelial-to-mesenchymal transition in tumor-associated brain endothelial cells in glioblastoma. Cancer Lett. 2018; 442:170-180). The Human Notch Signaling Pathway RT^2 Profiler PCR Array (Qiagen) was used to analyze the expression of 84 genes related to Notch signaling. For mRNA studies, […] (B2M) was measured for sample normalization. The primer sequences were included in Table 2. For microRNA analysis, RNU44 and U6 snRNA TaqMan microRNA Control Assays were used for normalization of human and mice samples, respectively.

[3] = tested on: AVM-BEC; test: Immunostaining of MMP2 and MMP9 in AVM-BEC; format: cell-based, human
Experimental: Immunostaining was performed as previously described^15. (Virrey J J, Golden E B, Sivakumar W, et al. Glioma-associated endothelial cells are chemoresistant to temozolomide. J Neurooncol. 2009; 95(1):13-22). Primary antibodies used were rabbit anti-MMP2, mouse anti-MMP9 (1:150, Abgent), rabbit anti-phospho-Smad1/5 (Ser463/465) (1:50, Abgent), rabbit anti-BMP4, rabbit anti-PAI-1 (1:50, Proteintech), rabbit anti-VEGF (1:50, Santa Cruz Biotechnology), rabbit anti-HIF-1α (1:50, Cell Signaling Technology), and rabbit anti-phospho-Smad3 (Ser423/425) (1:50, GeneTex). Secondary antibodies used were biotinylated anti-rabbit and biotinylated anti-mouse (1:300, Vector Laboratories), accordingly. Pictures were taken in an Eclipse 80i microscope (Nikon). Images shown are representative of three-five independent experiments.

Q: Which results are given for “hsa-miR-18a-5p (UAGGUGCAUCUAGUGCAGAUAG; chemistry not given here; listed as Homo sapiens) [small non-coding RNA molecule involved in post-transcriptional regulation of gene expression; Dharmacon]”?
A: levels of bFGF, ET-1, PAI-1 and VEGF (western blot) [1]: remained unaltered; ADAM10 mRNA expression ([2]; FIG. 13): downregulated; Notch-related genes downregulated ([2]; among the affected genes): 50 genes; Notch-related genes affected (fold change>2) ([2]; of 84 Notch-related genes): 68 genes; MMP9 expression (immunostaining) [3]: did not decrease
